How the values were obtained:
[1] = test system: binding between Ras and Ras-binding domain (RBD) of Rafl; test: Ras pulldown with inhibitor interference (Active Ras PullDown and Detection Kit, Western blot)
Description: 1.5.1 Ras pulldown with inhibitor interference: Inhibition of compounds on binding between Ras and Ras-binding domain (RBD) of Rafl was firstly analysed using Active Ras PullDown and Detection Kit (Thermofisher Scientific, Catalogue no 16117). The protocol was in accordance with the manual supplied with the kit. Western blot analysis was used to measure the inhibition. The known Inhibitor Kobe0065 was purchased from Focus Biosciences, Australia (www.focusbio.com.au) and used as the positive control.

Ras-Raf binding = test: Ras activation ELIZA kit assay (chemiluminescent)
Method: 1.5.2 ELIZA Assay: Another method to detect the inhibition of the Representative Compounds used a Ras activation ELIZA kit (Merck Millipore, Cat no 17-497). The protocol was in accordance with the manual provided with the kit. The inhibition was measured using a Chemiluminescent imaging system. The known inhibitor Kobe0065 was purchased from Focus Biosciences, Australia (www.focusbio.com.au) and used as the positive control.

HCT-116 cells = test: Cell proliferation assay (Cell Titre-Blue Cell Viability Assay); type: cell-based; conditions: Homo sapiens; HCT-116 colon-cancer cell line; FIG. 9, FIG. 10; read-out: IC50, inhibition of cell growth of HCT-116
Method: 1.8 Cells: Human cell lines were obtained from the NIH cell culture and cultured in media recommended by supplier.
1.9: Cell Proliferation Assays: Cells (2-3000) were seeded in a 96-well plate and cultured in McCoy's 5 containing 10% (vol/vol) FBS in the presence of one of compounds. Viable cell numbers were measured using a fluorometric kit (“Cell Titre-Blue Cell Viability Assay”: Promega Inc, USA). The viable cells convert blue colour dye to red/pink after incubating at 37 degrees with 5% CO2.

Absorption spectrum = type: physicochemical; conditions: compound 10 μM; long wavelength range
Method: 1.4 Absorption spectrum: The absorption spectra of the Representative Compounds were acquired. The concentration of compound was 10 μM.

Ras-Raf inhibition, ELIZA (Ras-Raf binding; 10 uM compound) [%] | Ras-Raf inhibition, ELIZA (Ras-Raf binding; 50 uM compound) [%] | IC50 ([1]; estimated from Table 2, read-out: inhibition IC50, Ras pulldown assay) [µM] | inhibition in Ras activation ELIZA assay compared with Ras pulldown assay (Ras-Raf binding; in words) | IC50 (HCT-116 cells) [µM] | absorption band (Absorption spectrum) [nm] | SMILES | Ras-Raf inhibition, Ras pulldown ([1]; 10 uM compound) [%] | Ras-Raf inhibition, Ras pulldown ([1]; 50 uM compound) [%] | IC50 (Ras-Raf binding; estimated from Table 2, read-out: inhibition IC50, Ras activation ELIZA assay) [µM]
34.61 | 35.73 | 10 to 50 | much weaker | – | – | C1=Cc2nc1c(-c1ccncc1)c1ccc([nH]1)c(-c1ccncc1)c1nc(c(-c3ccncc3)c3ccc([nH]3)c2-c2ccncc2)C=C1 [Representative Compound 1] | 0 | 76.5 | –
35.2 | 13.4 | – | – | 20 to 25 | 637 | C[n+]1cccc(-c2c3nc(c(-c4ccccc4)c4ccc(cc5nc(c(-c6ccccc6)c6ccc2[nH]6)C=C5)[nH]4)C=C3)c1.[I-] [Representative Compound 10, 3-(10,20-diphenylporphyrin-5-yl)-1-methylpyridin-1-ium iodide] | – | – | –

SMILES | Ras-Raf inhibition, ELIZA (Ras-Raf binding; 10 uM compound) [%] | Ras-Raf inhibition, ELIZA (Ras-Raf binding; 50 uM compound) [%] | IC50 ([1]; estimated from Table 2, read-out: inhibition IC50, Ras pulldown assay) [µM] | inhibition in Ras activation ELIZA assay compared with Ras pulldown assay (Ras-Raf binding; in words) | IC50 (HCT-116 cells) [µM] | absorption band (Absorption spectrum) [nm] | Ras-Raf inhibition, Ras pulldown ([1]; 10 uM compound) [%] | Ras-Raf inhibition, Ras pulldown ([1]; 50 uM compound) [%] | IC50 (Ras-Raf binding; estimated from Table 2, read-out: inhibition IC50, Ras activation ELIZA assay) [µM]
Cc1ccc(NC(=S)NNc2c([N+](=O)[O-])cc(C(F)(F)F)cc2[N+](=O)[O-])cc1Cl [Kobe0065, reference compound] | 66.8 | 73.11 | – | – | – | – | 0 | 76 | < 10
